Key:
[1] = biological target: T1, Metabotropic glutamate receptor 4 (Rattus norvegicus, UniProt P31423); test: Effective concentration against Metabotropic glutamate receptor 4
[2] = biological target: Metabotropic glutamate receptor 4 (Rattus norvegicus, UniProt P31423, D309A); test: Effective concentration against D309A mutant Metabotropic glutamate receptor 4
[3] = biological target: T1, Metabotropic glutamate receptor 4; test: Stimulation of [3H]phosphatidylinositol accumulation by rat Metabotropic glutamate receptor 4 co-expressed with Gqi9 protein in HEK 293 cells; Active; type: functional, cell-based, HEK293
[4] = biological target: T1, Metabotropic glutamate receptor 4; test: Stimulation of [3H]phosphatidylinositol accumulation by rat Metabotropic glutamate receptor 4 co-expressed with Gqi9 protein in HEK 293 cells; Inactive; type: functional, cell-based, HEK293
[5] = biological target: T1, Metabotropic glutamate receptor 4; test: Stimulation od [3H]phosphatidylinositol accumulation by rat Metabotropic glutamate receptor 4 co-expressed with Gqi9 protein in HEK 293 cells; type: functional, cell-based, HEK293

T1 sequence (P31423 whole entry): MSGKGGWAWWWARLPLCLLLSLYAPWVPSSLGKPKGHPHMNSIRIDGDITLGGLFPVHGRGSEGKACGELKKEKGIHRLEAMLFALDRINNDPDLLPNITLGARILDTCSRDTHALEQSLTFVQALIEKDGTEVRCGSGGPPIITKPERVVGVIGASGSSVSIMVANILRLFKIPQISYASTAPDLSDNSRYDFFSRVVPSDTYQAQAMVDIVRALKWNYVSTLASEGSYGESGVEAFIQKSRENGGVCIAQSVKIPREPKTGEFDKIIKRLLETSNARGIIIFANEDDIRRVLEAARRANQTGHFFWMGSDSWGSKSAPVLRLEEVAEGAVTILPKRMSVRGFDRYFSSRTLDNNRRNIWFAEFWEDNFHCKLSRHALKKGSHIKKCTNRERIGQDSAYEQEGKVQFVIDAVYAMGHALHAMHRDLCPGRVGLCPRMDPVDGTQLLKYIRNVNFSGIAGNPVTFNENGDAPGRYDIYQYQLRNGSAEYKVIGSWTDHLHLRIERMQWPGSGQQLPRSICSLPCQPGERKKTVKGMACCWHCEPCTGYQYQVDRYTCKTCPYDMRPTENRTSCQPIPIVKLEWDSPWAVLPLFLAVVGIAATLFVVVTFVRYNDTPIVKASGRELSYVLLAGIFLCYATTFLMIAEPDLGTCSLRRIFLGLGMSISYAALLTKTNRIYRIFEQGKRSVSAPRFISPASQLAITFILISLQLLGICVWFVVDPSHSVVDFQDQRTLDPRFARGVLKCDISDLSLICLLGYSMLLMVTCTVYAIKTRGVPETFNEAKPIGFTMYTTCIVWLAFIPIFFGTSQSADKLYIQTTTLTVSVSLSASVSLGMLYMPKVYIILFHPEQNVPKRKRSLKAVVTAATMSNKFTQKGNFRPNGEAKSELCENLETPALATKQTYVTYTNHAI
Metabotropic glutamate receptor 4 (Rattus norvegicus, UniProt P31423, D309A), sequence (P31423 whole entry, looked up, stated change not applied): as the sequence (P31423 whole entry) above

EC50 [3]	EC50 [4]	Compound	also measured
< 100 µM		N[C@H](C(=O)O)[C@@H]1C[C@H]1C(=O)O	
	> 100 µM	N[C@@]1(C(=O)O)CN[C@@H](C(=O)O)C1	
	> 100 µM	N[C@@]1(C(=O)O)CC[C@H]2[C@H](C(=O)O)[C@H]21 [EGLUMETAD]	
< 100 µM		N[C@@]1(C(=O)O)C[C@H](C(=O)O)[C@H](C(=O)O)C1	
< 100 µM		NC1(C(=O)O)CC2CC1C2C(=O)O (centres undefined)	
	> 100 µM	N[C@H](C(=O)O)C12CC(C(=O)O)(C1)C2	EC50 [5]: > 1000 µM
< 100 µM		NC1(C(=O)O)C[C@H](C(=O)O)[C@@H](C(=O)O)C1	

The next lines start with the molecule.

Compound	EC50 [3]	EC50 [4]	also measured
N[C@@H](CCP(=O)(O)O)C(=O)O	< 100 µM		EC50 [1]: 0.2 µM; EC50 [2]: 129 µM
N[C@@]1(C(=O)O)CC[C@@H](C(=O)O)C1		> 100 µM	
N[C@H](C(=O)O)c1cc(O)cc(O)c1		> 100 µM	
N[C@@]1(C(=O)O)CC[C@H](C(=O)O)C1		> 100 µM	
C=C(C[C@@H](N)C(=O)O)C(=O)O		> 100 µM	
N[C@H](CCC(=O)O)C(=O)O [D-GLUTAMATE]	< 100 µM		
N[C@H](C(=O)O)c1ccc(C(=O)O)c(C(=O)O)c1	< 100 µM		
N[C@@H](CCS(=O)(=O)O)C(=O)O	< 100 µM		
N[C@@H](COP(=O)(O)O)C(=O)O [DEXFOSFOSERINE]	< 100 µM		
N[C@H](C(=O)O)c1ccc(P(=O)(O)O)cc1	< 100 µM		
N[C@H](C(=O)O)c1ccc(C(=O)O)c(O)c1		> 100 µM	
N[C@@H](CCn1oc(=O)[nH]c1=O)C(=O)O		> 100 µM	
C[C@@H](C[C@@H](N)C(=O)O)C(=O)O		> 100 µM	
N[C@H](Cn1oc(=O)[nH]c1=O)C(=O)O		> 100 µM	
